Some test systems named below: RPMI-8226; U-251; OVCAR-3; HCC 2998; HOP-62; SK-MEL-2; LOX IMVI; SNB-19; SK-MEL-28; MOLT-4; DU-145; SW-620; MDA-MB-231; KM12; MCF7; NCI/ADR-RES; UACC-62; MDA-MB-435; HCT-15; UACC-257.
Assay in all cases: NCI tumour cell line growth inhibition, 48 h

Structures are written as SMILES.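 Protocol summary: plate cells (96-well), add compound at 5 concentrations, incubate 48 h, interpolate endpoints linearly. GI50: concentration for 50% inhibition of growth.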 Calls of active or inactive are those of the source. Rule as the data show it: active = GI50 up to about 1.1 µM and inactive = higher.

In the case of `Clc1ccc2nc3c(c(-c4ccccc4)nn3-c3ccccc3)c(-c3ccccc3)c2c1`, the GI50 with RPMI-8226, in the assay with U-251, in the assay on OVCAR-3, in the assay on HCC 2998, in the assay on HOP-62 and with SK-MEL-2 was > 100 µM (inactive) in each case. In addition, the GI50 in the assay on LOX IMVI, in the assay with SNB-19, with SK-MEL-28, in the assay on MOLT-4, in the assay on DU-145 and in the assay with SW-620 was > 100 µM (inactive) each time. In addition, the GI50 in the assay with MDA-MB-231, in the assay with KM12, in the assay on MCF7, in the assay on NCI/ADR-RES, in the assay with UACC-62 and in the assay with MDA-MB-435 was > 100 µM (inactive) throughout. Besides, in the assay on HCT-15, the GI50 was over 100 µM.

Turning to `Nc1ncnc2nc(N3CCN(CCO)CC3)[nH]c12`, the GI50 in the assay with RPMI-8226, in the assay on U-251, with OVCAR-3, in the assay on HCC 2998, in the assay on HOP-62 and in the assay on SK-MEL-2 was > 100 µM (inactive) in each case. The GI50 is > 100 µM (inactive) with UACC-257; > 100 µM (inactive) with LOX IMVI; > 100 µM (inactive) in the assay with SNB-19; > 100 µM (inactive) in the assay on SK-MEL-28; 50.6 µM (inactive) with MOLT-4; > 100 µM (inactive) in the assay with DU-145. The GI50 with SW-620, with MDA-MB-231, with KM12, with MCF7, in the assay on NCI/ADR-RES and in the assay on UACC-62 was > 100 µM (inactive) each time. Further, the figures for the GI50 in the assay with MDA-MB-435 and with HCT-15 were > 100 µM (inactive) and over 100 µM, respectively.

For `COC(=O)C1=C(OC(=O)/C(=C/c2ccccc2)c2ccccc2)C(C(=O)OC)[C@@]2(O)[C@@H](C(=O)OC)[C@H](C)C[C@@H]1[C@@H]2C(=O)OC` (some centres not stated), the GI50 with RPMI-8226 was 2.67 µM (inactive); in the assay with U-251, > 100 µM (inactive); with OVCAR-3 it was > 100 µM (inactive); with HCC 2998 it was > 100 µM (inactive); in the assay with HOP-62 it was > 100 µM (inactive); in the assay with SK-MEL-2 it was > 100 µM (inactive). Further, the GI50 with UACC-257, in the assay with LOX IMVI, in the assay with SNB-19, in the assay on SK-MEL-28, in the assay on DU-145 and in the assay with SW-620 was > 100 µM (inactive) in each case. Also, the GI50 in the assay with MDA-MB-231, with KM12, in the assay on MCF7, in the assay with NCI/ADR-RES, in the assay with UACC-62 and with MDA-MB-435 was > 100 µM (inactive) throughout. The compound also had a GI50 with HCT-15 of over 100 µM.

On to `O=C(Cc1ccccc1)N/N=C(/CCN1CCCC1)CC(c1ccccc1)c1c(O)c2ccccc2oc1=O` (configuration not stated), for which the GI50 in the assay on RPMI-8226 is 39.7 µM (inactive); in the assay with U-251, > 100 µM (inactive); with OVCAR-3, > 100 µM (inactive); with HCC 2998 it was 95.1 µM (inactive); with SK-MEL-2, > 100 µM (inactive); in the assay with UACC-257, 37.2 µM (inactive). Moreover, the GI50 was 17.3 µM (inactive) in the assay with LOX IMVI; > 100 µM (inactive) in the assay on SNB-19; > 100 µM (inactive) in the assay with SK-MEL-28; 46.6 µM (inactive) in the assay with MOLT-4; > 100 µM (inactive) in the assay on DU-145; > 100 µM (inactive) with SW-620. Moreover, the GI50 is 26 µM (inactive) in the assay on MDA-MB-231; > 100 µM (inactive) with KM12; 22 µM (inactive) in the assay on MCF7; 55.8 µM (inactive) in the assay on NCI/ADR-RES; 63.7 µM (inactive) with UACC-62; > 100 µM (inactive) in the assay on MDA-MB-435. The GI50 in the assay with HCT-15 was 72.4 µM.
